Assay results as given in publication PMC10126264, “Synergistic effect and antibiofilm activity of the antimicrobial peptide K11 with conventional antibiotics against multidrug-resistant and extensively drug-resistant Klebsiella pneumoniae” (Frontiers in Cellular and Infection Microbiology, 2023).
Converted amounts (≈) assume the structure as drawn. Like-named read-outs stand apart in the source and are kept apart here.

Assays:
[1] = tested on: MDR/XDR K. pneumoniae clinical isolates; test: Antimicrobial susceptibility testing, disk diffusion (CLSI); assay type: cell-based, Klebsiella pneumoniae; conditions: all fifteen isolates, CLSI guidelines
Method: (§1) In this study, fifteen non-duplicate clinical isolates of MDR/XDR K. pneumoniae were obtained from the bacterial repository of the Division of Infectious Diseases and Tropical Medicine, Department of Medicine, Faculty of Medicine Siriraj Hospital, Mahidol University. […] Antimicrobial susceptibility testing was also carried out by the disk diffusion method according to CLSI guidelines ([Clinical and Laboratory Standards Institute, 2021]). Furthermore, all isolates were tested for colistin resistance by broth microdilution based on CLSI recommendations. […] The MDR bacteria was defined as bacteria that are resistant to at least one agent in three or more antimicrobial categories, while the XDR bacteria refer to bacteria that are resistant to at least one agent in all but two or fewer antimicrobial categories based on laboratory results. E. coli ATCC 25922 was used as a reference control strain for susceptibility testing. Other reference strains, including K. pneumoniae ATCC 70063 and K. pneumoniae ATCC BAA-1706 (bla KPC […]), were used as control strains throughout the study.

[2] = tested on: MDR/XDR K. pneumoniae clinical isolates; test: microbe, parasite or virus in culture; conditions: Klebsiella pneumoniae
Method: The ability of K11 to inhibit bacterial growth was determined by the broth microdilution method ([Clinical and Laboratory Standards Institute, 2018]). Briefly, a series of 2-fold dilutions of K11 were prepared from 1,024 to 2 µg/mL in cation-adjusted Mueller-Hinton broth (CAMHB), Then 50 µL of each peptide dilution was added to each well of polystyrene 96-well U-bottom microplates. The log-phase cultures were adjusted to 0.5 McFarland standard and diluted 1:100 in CAMHB to provide the density of 10^6 CFU/mL. Consequently, 50 µL of diluted bacterial suspension was added to wells containing 50 µL of peptide solution, followed by incubation for 20-24 h at 37°C. […] To evaluate MBC, a volume of 10 μL was taken from each well with no visible growth, inoculated on Mueller-Hinton agar (MHA) plates, and incubated at 37°C. The MBC was defined as the lowest concentration of antimicrobials that killed at least 99.9% of the initial inoculums ([Clinical and Laboratory Standards Institute, 1999]).

[3] = tested on: K. pneumoniae ATCC BAA-1706; assay type: cell-based, Klebsiella pneumoniae; conditions: compared to day 1
Method: The resistance development of K11, ciprofloxacin, and colistin was assessed according to the previously described protocol ([Pollard et al., 2012]). Briefly, MIC values for a K. pneumoniae ATCC BAA-1706 were first examined and recorded. […] This inoculum was subjected to another MIC assay. […] The process was repeated for 30 passages. The MIC values for K11 and antibiotics were recorded and plotted as the MIC fold change compared to day 1 of the experiment.

[4] = ref Witherell et al., 2021; cited from earlier work
Source text: K11 is a synthetic peptide derived from natural AMPs (cecropin A1, melittin, and maganin 2), composed of 20 amino acids ([…]-NH2). […] Moreover, K11 has also been successfully used in vivo as a topic hydrogel solution against Acinetobacter baumannii-infected wounds ([Rishi et al., 2018]).

[5] = tested on: MDR/XDR K. pneumoniae clinical isolates; test: Colistin MIC, broth microdilution (CLSI); assay type: cell-based, Klebsiella pneumoniae; conditions: all fifteen isolates, resistance defined as MIC ≥4 µg/mL
Method: as §1

## C[C@H]1[C@H](NC(=O)/C(=N\OC(C)(C)C(=O)O)c2csc(N)n2)C(=O)N1S(=O)(=O)O [aztreonam]
[1]
  antimicrobial susceptibility profile: resistant

## CO/N=C(\C(=O)N[C@@H]1C(=O)N2C(C(=O)[O-])=C(C[N+]3(C)CCCC3)CS[C@H]12)c1csc(N)n1 [cefepime]
[1]
  antimicrobial susceptibility profile: resistant

## CO[C@@]1(NC(=O)Cc2cccs2)C(=O)N2C(C(=O)O)=C(COC(N)=O)CS[C@@H]21 [cefoxitin]
[1]
  antimicrobial susceptibility profile: resistant

## CC(C)(O/N=C(\C(=O)N[C@@H]1C(=O)N2C(C(=O)[O-])=C(C[n+]3ccccc3)CS[C@H]12)c1csc(N)n1)C(=O)O [ceftazidime]
[1]
  antimicrobial susceptibility profile: resistant

## CO/N=C(\C(=O)N[C@@H]1C(=O)N2C(C(=O)O)=C(CSc3nc(=O)c(=O)[nH]n3C)CS[C@H]12)c1csc(N)n1 [ceftriaxone]
[1]
  antimicrobial susceptibility profile: resistant

## O=C(N[C@H](CO)[C@H](O)c1ccc([N+](=O)[O-])cc1)C(Cl)Cl [chloramphenicol]
[2]
  MIC: 16 µg/mL (≈ 49.5 µM)
[1]
  antimicrobial susceptibility profile: resistant

## O=C(O)c1cn(C2CC2)c2cc(N3CCNCC3)c(F)cc2c1=O [ciprofloxacin]
[3]; after 7 serial passages at 0.5×MIC
  MIC fold change: 16 fold
[3]; after 12 passages at 0.5×MIC, maintained until 30 passages
  MIC fold change: 64 fold

## C[C@@H](O)[C@H]1C(=O)N2C(C(=O)O)=C(S[C@@H]3CN[C@H](C(=O)Nc4cccc(C(=O)O)c4)C3)[C@H](C)[C@H]12 [ertapenem]
[1]
  antimicrobial susceptibility profile: resistant

## C[C@@H](O)[C@H]1C(=O)N2C(C(=O)O)=C(S[C@@H]3CN[C@H](C(=O)N(C)C)C3)[C@H](C)[C@H]12 [meropenem, reference compound]
[2]
  MIC: 64 µg/mL (≈ 167 µM)

## CO[C@H]1/C=C/O[C@@]2(C)Oc3c(C)c(O)c4c(O)c(c(/C=N/N5CCN(C)CC5)c(O)c4c3C2=O)NC(=O)/C(C)=C\C=C\[C@H](C)[C@H](O)[C@@H](C)[C@@H](O)[C@@H](C)[C@H](OC(C)=O)[C@@H]1C [rifampicin]
[2]
  MIC: 32 µg/mL (≈ 38.9 µM)

## colistin [reference compound]
[4]
  concentration showing significant hemolytic activity: more than 100 μg/mL
[5]
  MICs, all isolates: ≥ 4 µg/mL
